# Measurements taken from article PMC8161026, “Synthesis and Anticancer Activity Evaluation of 5-[2-Chloro-3-(4-nitrophenyl)-2-propenylidene]-4-thiazolidinones” (Molecules, 2021).
# Experiments:
# 60 tumor cell lines = experiment: NCI60 full panel MG_MID; details: for GI50 / CC50: Homo sapiens; for GI50: read-out: 60 lines MG_MID, GI50; for CC50: read-out: 60 lines MG_MID, LC50; for 60 lines MG_MID, TGI: mean over all cell lines
# Procedure: At the first stage of biological activity study, the antitumor activity screening of the selected compounds 2b, 2c, 2f, 2h, and 2j was performed according to the NCI DTP (USA) standard protocol at the concentrations ranging from 10^−4 to 10^−8 M toward 60 tumor cell lines. The percentage of growth was evaluated spectrophotometrically versus controls not treated with test agents after 48 h exposure and using SRB protein assay to estimate cell viability or growth. Dose–response parameters were calculated for each cell line: GI50—molar concentration of the compound that inhibits 50% net cell growth; TGI—molar concentration of the compound leading to the total inhibition; and LC50—molar concentration of the compound leading to 50% net cell death. Furthermore, mean graph midpoints (MG_MID) were calculated for each of the parameters, giving an average activity parameter over all cell lines for the tested compound. For the MG_MID calculation, insensitive cell lines were included with the highest concentration tested.
# Primary anticancer assay was performed on a panel of approximately sixty human tumor cell lines derived from nine neoplastic diseases, in accordance with the protocol of the Drug Evaluation Branch, National Cancer Institute, Bethesda. Tested compounds were added to the culture at a single concentration (10^−5 M) and the cultures were incubated for 48 h. End point determinations were made with a protein binding dye, sulforhodamine B (SRB). […] The percentage growth was evaluated spectrophotometrically versus controls not treated with test agents.
# Dose–response parameters (GI50, TGI, LC50) were calculated for each compound. […] The drug concentration resulting in total growth inhibition (TGI) was calculated from Ti = Tz. The LC50 (concentration of drug resulting in a 50% reduction in the measured protein at the end of the drug treatment as compared to that at the beginning) indicating a net loss of cells following treatment was calculated from [(Ti − Tz)/Tz] × 100 = −50 (2). Values were calculated for each of these parameters if the level of activity was reached; however, if the effect was not reached or was excessive, the value for that parameter was expressed as more or less than the maximum or minimum concentration tested.
# [1] = system: MDA-MB-231 (breast cancer); experiment: MTT cell viability assay; format: cell-based; details: Homo sapiens; MDA-MB-231, MTT, 24 h
# Procedure: In the second stage of the research, Ciminalum-thiazolidinone hybrids were investigated for antitumor activity on the lines of gastric cancer (AGS), human colon cancer (DLD-1), and breast cancers (MCF-7 and MDA-MB-231). The study was performed in the MTT assay according to the method described previously. The studied cancer line was sensitive to the action of the studied compounds that inhibited its growth in micromolar ranges of GI50. The hit compounds that inhibited the growth of all four cancer lines with the lowest GI50 values were [5-[2-chloro-3-(4-nitrophenyl)prop-2-enylidene]-rhodanines 2c, 2d, 2h, and 2i (Table 4).
# EKVX = EKVX (Non-Small Cell Lung Cancer), 48 h, SRB
# HCT-116 = HCT-116 (Colon Cancer), 48 h, SRB
# K-562 = experiment: cells; details: Homo sapiens, K562, 48 h; for CC50: read-out: LC50
# 786-0 [2] = details: 786-0 (Renal Cancer), 48 h, SRB
# PC-3 = PC-3 (Prostate Cancer), 48 h, SRB
# T-47D = T-47D (Breast Cancer), 48 h, SRB
# RPMI-8226 = experiment: cells; details: Homo sapiens, RPMI-8226, 48 h; for CC50: read-out: LC50
# 786-0 [3] = experiment: cells; details: Homo sapiens, 786-0, 48 h; for CC50: read-out: LC50
# DU-145 = experiment: cells; details: Homo sapiens, DU-145, 48 h; for CC50: read-out: LC50
# NCI-H522 = experiment: NCI DTP 60 cell line screen, SRB
# Colo 205 = experiment: NCI DTP 60 cell line screen, SRB; details: for TGI: Colo 205 (Colon Cancer), 48 h, SRB; for GI50 / CC50: Homo sapiens, COLO 205, 48 h; for CC50: read-out: LC50
# SF-295 = experiment: NCI DTP 60 cell line screen, SRB; details: for GI50 / CC50: Homo sapiens, SF-295, 48 h; for CC50: read-out: LC50; for TGI: SF-295 (CNS Cancer), 48 h, SRB
# SF-539 = experiment: NCI DTP 60 cell line screen, SRB; details: for GI50 / CC50: Homo sapiens, SF-539, 48 h; for CC50: read-out: LC50; for TGI: SF-539 (CNS Cancer), 48 h, SRB
# ACHN = experiment: NCI DTP 60 cell line screen, SRB; details: 48 h; for TGI: ACHN (Renal Cancer), SRB; for GI50 / CC50: Homo sapiens, ACHN; for CC50: read-out: LC50
# TK-10 = experiment: NCI DTP 60 cell line screen, SRB; details: for GI50 / CC50: Homo sapiens, TK-10, 48 h; for CC50: read-out: LC50; for TGI: TK-10 (Renal Cancer), 48 h, SRB
# UO-31 = experiment: NCI DTP 60 cell line screen, SRB; details: for GI50 / CC50: Homo sapiens, UO-31, 48 h; for CC50: read-out: LC50; for TGI: UO-31 (Renal Cancer), 48 h, SRB
# MDA-MB-435 = experiment: NCI DTP 60 cell line screen, SRB; details: for GI50 / CC50: Homo sapiens, MDA-MB-435, 48 h; for CC50: read-out: LC50; for TGI: MDA-MB-435 (Breast Cancer), 48 h, SRB
# SNB-75 = experiment: cells; details: Homo sapiens, SNB-75, 48 h
# HOP-92 = experiment: NCI DTP 60 cell line screen, SRB
compound,measurement,setting,value
"O=C1/C(=C/C(Cl)=C/c2ccc([N+](=O)[O-])cc2)SC(=S)N1/N=C\C(Cl)=C\c1ccc([N+](=O)[O-])cc1 [Compound 2c, 5-[(Z,2Z)-2-Chloro-3-(4-nitrophenyl)-2-propenylidene]-3-[(Z,2Z)-2-chloro-3-(4-nitrophenyl)-2-propenylideneamino]-2-thioxo-4-thiazolidinone]",GI50,60 tumor cell lines,18 µM
same,CC50,60 tumor cell lines,81.7 µM
same,"60 lines MG_MID, TGI",60 tumor cell lines,43.1 µM
same,GI50,[1],1.59 µM
same,TGI,EKVX,47.7 µM
same,TGI,HCT-116,6.51 µM
same,GI50,K-562,3.98 µM
same,CC50,K-562,> 100 µM
same,TGI,786-0 [2],30.7 µM
same,TGI,PC-3,45.8 µM
same,TGI,T-47D,65.3 µM
same,GI50,RPMI-8226,2.38 µM
same,CC50,RPMI-8226,> 100 µM
same,GI50,786-0 [3],12.1 µM
same,CC50,786-0 [3],77.8 µM
same,GI50,DU-145,21.7 µM
same,CC50,DU-145,> 100 µM
same,GI50,"NCI-H522; Homo sapiens, NCI-H522, 48 h",16.3 µM
same,CC50,"NCI-H522; Homo sapiens, NCI-H522, 48 h, read-out: LC50",66.2 µM
same,TGI,"NCI-H522; NCI-H522 (Non-Small Cell Lung Cancer), 48 h, SRB",32.9 µM
same,TGI,Colo 205,> 100 µM
same,GI50,Colo 205,56.2 µM
same,CC50,Colo 205,> 100 µM
same,GI50,SF-295,18 µM
same,CC50,SF-295,77.1 µM
same,TGI,SF-295,37.3 µM
same,GI50,SF-539,25.9 µM
same,CC50,SF-539,> 100 µM
same,TGI,SF-539,57.4 µM
same,TGI,ACHN,29.7 µM
same,GI50,ACHN,15.6 µM
same,CC50,ACHN,56.4 µM
same,GI50,TK-10,28 µM
same,CC50,TK-10,> 100 µM
same,TGI,TK-10,69.6 µM
same,GI50,UO-31,17.5 µM
same,CC50,UO-31,59.1 µM
same,TGI,UO-31,32.2 µM
same,GI50,MDA-MB-435,20.3 µM
same,CC50,MDA-MB-435,86.3 µM
same,TGI,MDA-MB-435,41.9 µM
"O=C1/C(=C/C(Cl)=C/c2ccc([N+](=O)[O-])cc2)SC(=S)N1c1ccc(O)cc1 [Compound 2f, 5-[(Z,2Z)-2-Chloro-3-(4-nitrophenyl)-2-propenylidene]-3-(4-hydroxyphenyl)-2-thioxo-4-thiazolidinone]",GI50,60 tumor cell lines,2.8 µM
same,CC50,60 tumor cell lines,80.8 µM
same,"60 lines MG_MID, TGI",60 tumor cell lines,32.3 µM
same,TGI,EKVX,16.2 µM
same,TGI,HCT-116,2.96 µM
same,GI50,K-562,0.521 µM
same,CC50,K-562,> 100 µM
same,TGI,786-0 [2],3.83 µM
same,TGI,PC-3,84.8 µM
same,TGI,T-47D,7.71 µM
same,GI50,RPMI-8226,< 0.01 µM
same,CC50,RPMI-8226,> 100 µM
same,GI50,SNB-75,25.1 µM
same,CC50,SNB-75; read-out: LC50,> 100 µM
same,GI50,786-0 [3],2.04 µM
same,CC50,786-0 [3],7.18 µM
same,GI50,DU-145,0.666 µM
same,CC50,DU-145,50.1 µM
same,TGI,"HOP-92; HOP-92 (Non-Small Cell Lung Cancer), 48 h, SRB",39.4 µM
same,GI50,"HOP-92; Homo sapiens, HOP-92, 48 h",8.53 µM
same,CC50,"HOP-92; Homo sapiens, HOP-92, 48 h, read-out: LC50",> 100 µM
same,TGI,Colo 205,> 100 µM
same,GI50,Colo 205,4.34 µM
same,CC50,Colo 205,> 100 µM
same,GI50,SF-295,2.26 µM
same,CC50,SF-295,> 100 µM
same,TGI,SF-295,13.8 µM
same,GI50,SF-539,0.0252 µM
same,CC50,SF-539,28.1 µM
same,TGI,SF-539,0.242 µM
same,TGI,ACHN,3.51 µM
same,GI50,ACHN,1.7 µM
same,CC50,ACHN,7.27 µM
same,GI50,TK-10,4.87 µM
same,CC50,TK-10,> 100 µM
same,TGI,TK-10,29.0 µM
same,GI50,UO-31,2.08 µM
same,CC50,UO-31,> 100 µM
same,TGI,UO-31,3.98 µM
same,GI50,MDA-MB-435,3.5 µM
same,CC50,MDA-MB-435,> 100 µM
same,TGI,MDA-MB-435,7.71 µM
